For 16 compounds, EC50 results are on record in BindingDB's records for doi:10.1016/j.bmcl.2019.04.027 (Gilead Sciences, 2019).

Assay [1] in a line: Inhibition of NS5A in HCV genotype 1a H77 infected in human HuH7 replicon cells assessed as reduction in viral replication after 3 days by luciferase reporter gene assay.
A short description of assay [2]: Inhibition of NS5A in HCV genotype 1b Con1 infected in human HuH7 replicon cells assessed as reduction in viral replication after 3 days by luciferase reporter gene assay.
Assay [3] can be described thus: Inhibition of NS5A in HCV genotype 2a JFH1 infected in human HuH7 replicon cells assessed as reduction in viral replication after 3 days by luciferase reporter gene assay.
Assay [4] is described as follows: Inhibition of NS5A in HCV genotype 4a ED43 infected in human HuH7 replicon cells assessed as reduction in viral replication after 3 days by luciferase reporter gene assay.
Assay [5] in a line: Inhibition of NS5A in HCV genotype 2b MD2b-1 infected in human HuH7 replicon cells assessed as reduction in viral replication after 3 days by luciferase reporter gene assay.
Assay [6] in a line: Inhibition of NS5A L31M mutant in HCV genotype 2a J6 (M31) infected in human HuH7 replicon cells assessed as reduction in viral replication after 3 days by luciferase reporter gene assay.
A short description of assay [7]: Inhibition of NS5A in HCV genotype 3a S52 infected in human HuH7 transient chimeric replicon cells assessed as reduction in viral replication after 3 days by luciferase reporter gene assay.
A short description of assay [8]: Inhibition of NS5A in HCV genotype 6a HK6 infected in human HuH7 replicon cells assessed as reduction in viral replication after 3 days by luciferase reporter gene assay.
The nature of assay [9]: Inhibition of NS5A in HCV genotype 6e D88 infected in human HuH7 replicon cells assessed as reduction in viral replication after 3 days by luciferase reporter gene assay.
The nature of assay [10]: Inhibition of NS5A in HCV genotype 5a SA13 infected in human HuH7 replicon cells assessed as reduction in viral replication after 3 days by luciferase reporter gene assay.
Assay [11] is described as follows: Inhibition of NS5A in HCV genotype 2a JFH1 (L31) infected in human HuH7 replicon cells assessed as reduction in viral replication after 3 days by luciferase reporter gene assay.
The nature of assay [12]: Inhibition of NS5A L31M mutant in HCV genotype 2a JFH1 infected in human HuH7 replicon cells assessed as reduction in viral replication after 3 days by luciferase reporter gene assay.
The nature of assay [13]: Inhibition of NS5A in HCV genotype 4a ED43 infected in human HuH7 transient chimeric replicon cells assessed as reduction in viral replication after 3 days by luciferase reporter gene assay.
Assay [14] is described as follows: Inhibition of NS5A L31M mutant in patient derived HCV genotype 2b MD2b-1 infected in human HuH7 replicon cells assessed as reduction in viral replication after 3 days by luciferase reporter gene assay.
A short description of assay [15]: Inhibition of NS5A L31M mutant in HCV genotype 2a JFH1 (M31) infected in human HuH7 replicon cells assessed as reduction in viral replication after 3 days by luciferase reporter gene assay.
The nature of assay [16]: Inhibition of NS5A in HCV genotype 2a J6 infected in human HuH7 replicon cells assessed as reduction in viral replication after 3 days by luciferase reporter gene assay.

On to `COC[C@H]1C[C@@H](c2ncc(-c3ccc4c(c3)COc3cc5c(ccc6nc([C@@H]7C[C@H](C)CN7C(=O)[C@@H](NC(=O)OC)C(C)C)[nH]c65)cc3-4)[nH]2)N(C(=O)[C@H](NC(=O)OC)c2ccccc2)C1`, for which the EC50 in assay [1] was 0.013 nM; in assay [2], 0.017 nM; in assay [3] it was 0.006 nM; in assay [4] it was 0.011 nM; in assay [5] it was 0.015 nM; in assay [6] it was 0.014 nM. Also, the EC50 in assay [7] turned out to be 0.025 nM.
Regarding `COC(=O)N[C@H](C(=O)N1CCC[C@H]1c1ncc(-c2cc3c4c(c2)OCc2cc(-c5cnc([C@@H]6CCCN6C(=O)[C@@H](NC(=O)OC)C(C)C)[nH]5)cc(c2-4)OC3)[nH]1)C(C)C`, the EC50 in assay [8] is 0.016 nM; in assay [1], 0.029 nM; in assay [2], 0.022 nM; in [9], 1.16 nM; in assay [10], 0.056 nM; in assay [11] it was 0.007 nM. The EC50 in assay [12] amounted to 5.9 nM; in assay [6], 8.81 nM; in assay [7], 0.055 nM; in [13], 0.029 nM; in assay [14] it was 1.77 nM.
For `COC[C@H]1C[C@@H](c2ncc(-c3ccc4c(c3)COc3cc5c(ccc6nc([C@@H]7CCCN7C(=O)[C@@H](NC(=O)OC)C(C)C)[nH]c65)cc3-4)[nH]2)N(C(=O)[C@H](NC(=O)OC)c2ccccc2)C1`, the EC50 in assay [1] came to 0.011 nM; in [2], 0.019 nM; in [3], 0.006 nM; in assay [4] it was 0.007 nM; in assay [5], 0.009 nM; in assay [6] it was 0.013 nM. Further, the EC50 in assay [7] was found to be 0.017 nM.
In the case of `COC(=O)N[C@@H](C(=O)N1CCC[C@H]1c1ncc(-c2cc3c4c(c2)OCc2cc(-c5cnc([C@@H]6CCCN6C(=O)[C@H](NC(=O)OC)c6ccccc6)[nH]5)cc(c2-4)OC3)[nH]1)c1ccccc1`, the EC50 in assay [1] stood at 0.093 nM; in assay [2] it was 0.048 nM; in assay [11], 0.007 nM; in [12] it was 0.145 nM; in [6], 0.24 nM; in assay [14], 0.022 nM.
As for `COC[C@H]1C[C@@H](c2ncc(-c3ccc4c(c3)COc3cc5c(ccc6nc([C@@H]7C[C@H]8C[C@@H]8N7C(=O)[C@@H](NC(=O)OC)C(C)C)[nH]c65)cc3-4)[nH]2)N(C(=O)[C@H](NC(=O)OC)c2ccccc2)C1`, the EC50 in assay [1] was determined as 0.01 nM; in assay [2] it was 0.011 nM; in [3] it was 0.006 nM; in assay [4] it was 0.009 nM; in assay [5], 0.046 nM; in assay [6], 0.113 nM. The EC50 in [7] was 0.018 nM.
On to `CCO[C@H]1C[C@@H](c2nc3ccc4cc5c(cc4c3[nH]2)OCc2cc(-c3cnc([C@@H]4CCCN4C(=O)[C@@H](NC(=O)OC)C(C)C)[nH]3)ccc2-5)N(C(=O)[C@@H](NC(=O)OC)C(C)C)C1`, for which the EC50 in [1] is 0.015 nM; in [2] it was 0.018 nM; in assay [5] it was 0.265 nM; in assay [6] it was 0.378 nM; in assay [7] it was 0.048 nM; in assay [15], 0.007 nM. For the same compound, the EC50 in assay [13] stood at 0.02 nM.
For `COC[C@H]1C[C@@H](c2ncc(-c3cc4c5c(c3)OCc3cc(-c6cnc([C@@H]7CC[C@H](C)N7C(=O)[C@@H](NC(=O)OC)C(C)C)[nH]6)cc(c3-5)OC4)[nH]2)N(C(=O)[C@H](NC(=O)OC)c2ccccc2)C1`, the EC50 turned out to be 0.48 nM in [16]; 0.022 nM in [8]; 0.016 nM in assay [1]; 0.016 nM in assay [2]; 0.11 nM in assay [9]; 0.013 nM in [4]. Further, the EC50 in assay [10] was 0.081 nM; in assay [5] it was 0.29 nM; in [7] it was 0.12 nM.
As to `COC(=O)N[C@H](C(=O)N1CCC[C@H]1c1ncc(-c2cc3c4c(c2)OCc2cc(-c5cnc([C@@H]6CCCN6C(=O)[C@H](NC(=O)OC)c6ccccc6)[nH]5)cc(c2-4)OC3)[nH]1)C1CCOCC1`, the EC50 in [1] amounted to 0.32 nM; in assay [2] it was 0.315 nM; in assay [11], 0.022 nM; in assay [12], 0.32 nM; in assay [6] it was 0.28 nM; in assay [14] it was 0.057 nM.
For the compound `COC(=O)N[C@H](C(=O)N1C[C@@H](C)C[C@H]1c1nc2ccc3cc4c(cc3c2[nH]1)OCc1cc(-c2cnc([C@@H]3C[C@H](C)CN3C(=O)[C@H](NC(=O)OC)c3ccccc3)[nH]2)ccc1-4)C(C)C`, the EC50 stood at 0.033 nM in assay [1]; 0.03 nM in assay [2]; 0.018 nM in assay [3]; 0.063 nM in [4]; 0.027 nM in [5]; 0.045 nM in [6]. Besides, in [7], the EC50 came out at 0.05 nM.
`COC[C@H]1C[C@@H](c2ncc(-c3ccc4c(c3)COc3cc5c(ccc6nc([C@@H]7C[C@H](COC)CN7C(=O)[C@@H](NC(=O)OC)C(C)C)[nH]c65)cc3-4)[nH]2)N(C(=O)[C@@H](NC(=O)OC)C(C)C)C1`: the EC50 was found to be 0.024 nM in assay [1]; 0.034 nM in assay [2]; 0.18 nM in assay [5]; 0.061 nM in assay [6]; 0.206 nM in [7]; 0.01 nM in assay [15]. In assay [13], the EC50 turned out to be 0.036 nM.
Regarding `COC(=O)N[C@H](C(=O)N1[C@@H](C)CC[C@H]1c1ncc(-c2ccc3c(c2)COc2cc4c(ccc5nc([C@@H]6CC[C@H](C)N6C(=O)[C@@H](NC(=O)OC)C(C)C)[nH]c54)cc2-3)[nH]1)C(C)C`, the EC50 in [1] is 0.008 nM; in [2], 0.012 nM; in [5], 0.063 nM; in [6] it was 0.28 nM; in assay [7] it was 0.02 nM; in assay [15] it was 0.014 nM. For the same compound, the 50% effective concentration (EC50) in assay [13] was determined as 0.008 nM.
For `COC(=O)N[C@H](C(=O)N1CCC[C@H]1c1ncc(-c2ccc3c(c2)COc2cc4c(ccc5nc([C@@H]6C[C@H](C)CN6C(=O)[C@@H](NC(=O)OC)C(C)C)[nH]c54)cc2-3)[nH]1)C(C)C`, the concentration for a half-maximal effect (EC50) in assay [1] turned out to be 0.011 nM; in [2], 0.018 nM; in assay [5], 0.132 nM; in assay [6], 0.443 nM; in assay [7] it was 0.018 nM; in [15], 0.007 nM. In addition, the EC50 in [13] came out at 0.011 nM.
For `COC[C@H]1C[C@@H](c2nc3ccc4cc5c(cc4c3[nH]2)OCc2cc(-c3cnc([C@@H]4CC[C@H](C)N4C(=O)[C@@H](NC(=O)OC)C(C)C)[nH]3)ccc2-5)N(C(=O)[C@@H](NC(=O)OC)C(C)C)C1`, the EC50 in [1] worked out at 0.011 nM; in assay [2], 0.017 nM; in assay [5], 0.157 nM; in assay [6], 0.067 nM; in assay [7], 0.061 nM; in assay [15], 0.012 nM. The EC50 in assay [13] was found to be 0.015 nM.
As for `COC[C@H]1C[C@@H](c2ncc(-c3ccc4c(c3)COc3cc5c(ccc6nc([C@@H]7C[C@@H]8C[C@H]8N7C(=O)[C@@H](NC(=O)OC)C(C)C)[nH]c65)cc3-4)[nH]2)N(C(=O)[C@H](NC(=O)OC)c2ccccc2)C1`, the EC50 in assay [1] is 0.013 nM; in assay [2], 0.02 nM; in assay [3] it was 0.007 nM; in assay [4], 0.009 nM; in assay [5], 0.028 nM; in [6], 0.021 nM. Besides, the EC50 in assay [7] is 0.025 nM.
Consider `COC[C@H]1C[C@@H](c2nc3ccc4cc5c(cc4c3[nH]2)OCc2cc(-c3cnc([C@@H]4C[C@H](C)CN4C(=O)[C@@H](NC(=O)OC)C(C)C)[nH]3)ccc2-5)N(C(=O)[C@@H](NC(=O)OC)C(C)C)C1`, for which the 50% effective concentration (EC50) in assay [1] was 0.014 nM; in assay [2] it was 0.019 nM; in assay [5], 0.166 nM; in assay [6], 0.106 nM; in assay [7], 0.058 nM; in assay [15], 0.009 nM. Further, in assay [13], the EC50 stood at 0.022 nM.
As for `COC(=O)N[C@H](C(=O)N1CCC[C@H]1c1ncc(-c2cc3c4c(c2)OCc2cc(-c5cnc([C@@H]6CCCN6C(=O)[C@H](NC(=O)OC)c6ccccc6)[nH]5)cc(c2-4)OC3)[nH]1)C(C)C`, the concentration giving a half-maximal response (EC50) in assay [1] is 0.05 nM; in assay [2], 0.031 nM; in assay [11], 0.004 nM; in assay [12], 0.6 nM; in assay [6] it was 1.82 nM; in assay [14] it was 0.076 nM.
